Measured values taken from patent publication US7625951B2, “Stimuli-responsive hydrogel microdomes integrated with genetically engineered proteins for high-throughput screening of pharmaceuticals” (University of Kentucky Research Foundation, priority 2000, dated 2009).

Key:
calmodulin (CaM) = experiment: Swelling response of CaM-integrated hydrogel / hydrogel microdomes to free ligand
From the text: The hydrogel can swell when chlorpromazine (CPZ) is integrated into the hydrogel polymer network because immobilized phenothiazine is displaced from CaM by free CPZ. Phenothiazine is released from its CaM binding site and replaced by CPZ creating a relaxation of polymer chains. This relaxation allows more water to permeate the porous hydrogel polymer network, thus hydrogel swelling occurs.
In the first stage, CaM is bound to a phenothiazine. In the presence of CPZ, competitive binding occurs, and the non-covalent crosslinking is released creating expansion of the hydrogel network.
While the collective array can be used to visually screen for an analyte, the individually addressable microdome array is analyzed using a laser screening system to detect the change in height of the microdomes. The initial size of the hydrogel microdome, including the height of the microdome, is determined using the stylus profilometer. […] The microdome array 22 on substrate 24 is placed on a stage micrometer 26. A light generating means 14 such as a laser diode generates a light beam 16 that is reflected off the top of microdome 22 to produce a diffracted light 18 that is captured by photodiode 20. By positioning the microdome 22 on the stage micrometer 26, the initial height of the microdome can be determined by the amount of light deflected off the top of the microdome 22 by counting the number of photons detected by the photodiode 20.
After the initial reading, the microdome is not moved. A test solution is applied to the microdome for about 1 to 3½ minutes and then is removed and if the microdome swells, the amount of photons emitted off the microdome will change due to the swelling. The swell time for the hydrogel microdome is about 3½ minutes after the solution is applied to the microdome. […] After the test, the stage micrometer can be adjusted to bring another near by microdome in the array into the sensing area.

calmodulin (CaM109) = experiment: Fluorescence assay of conformation change in fluorophore (MDCC)-labeled CaM109 monomer and dimer; format: binding; conditions: added to labeled calmodulin molecules that had already bound calcium
From the text: In order to measure the extent of conformation change in CaM molecules in response to calcium and phenothiazine binding, a system has been developed in which a fluorophore is conjugated to a cysteine residue that had been inserted at amino acid 109 of wild type CaM using methods well known to those skilled in the art. This CaM mutant was called CaM109. The fluorescence of the fluorophore increases as the conformation of CaM changes in the presence of calcium.
Since wild-type CaM contains no cysteines, the addition of a cysteine to CaM at a desired position within the protein, allows for labeling of the protein at this position. Such labeling was done using a thiol-reactive fluorescent label called N-[2-(1-maleimidyl)ethyl]-7-(diethylamino)coumarin-3-carboxamide, or MDCC.
The fluorescence response of MDCC-labeled, CaM109 molecules was recorded in the absence and presence of 3×10^6 M Ca^++. The Ca^++ concentration was controlled by EGTA at pH 8.0, and the free Ca^++ concentrations were calculated using the software program Chelator (Haugland, 1996, Handbook of Fluorescent Probes and Research Chemicals, 6th edition, Molecular Probes, Eugene, Oreg., p. 52).

Structure (SMILES) | binding affinity for CaM (relative) (calmodulin (CaM); displacement of immobilized phenothiazine from the CaM binding site in the hydrogel) | swelling of protein-hydrogel microdomes (calmodulin (CaM); microdomes on polymethyl methacrylate or silanized glass slides) | swelling of CaM hydrogel with immobilized phenyl ligand (4-phenyl-1-butene) (calmodulin (CaM); phenothiazine derivative replaced with 4-phenyl-1-butene, swelling irreversible, FIG. 17) | fluorescence quenched (calmodulin (CaM109)) [%]
CN(C)CCCN1c2ccccc2Sc2ccc(Cl)cc21 [chlorpromazine] | higher binding affinity for CaM than phenothiazine | swelling occurred | the hydrogel swells | 
c1ccc2c(c1)Nc1ccccc1S2 [phenothiazine] |  |  |  | 100
